ChEMBL document CHEMBL1121980, “beta-adrenergic blocking agents. 24. Heterocyclic substituted 1-(aryloxy)-3-[[(amido)alkyl]amino]propan-2-ols” (1982)

Key:
Assay type in all cases: functional
Felis catus [1] = assay: In vivo beta adrenoceptor blocking potency was determined by inhibition of tachycardia in cat
Felis catus [2] = species: Felis catus; assay: The compound was evaluated for inhibition of depressor response.; design: concentration or dose not given beside the values
Felis catus [3] = species: Felis catus; assay: The compound was evaluated for inhibition of depressor response

In the case of O=C(NCCNCC(O)COc1ccccc1)c1cccs1 (configuration not stated), the ED50 (Felis catus [1]) is reported as 0.104 mg/kg and the Inhibition (Felis catus [2]) is reported as 28%.

Work on CC(C)NCC(O)COc1cccc2ccccc12 (configuration not stated) [PROPRANOLOL] yielded an ED50 (Felis catus [1]) of 0.062 mg/kg and an Inhibition (Felis catus [2]) of 85%.

N#Cc1ccccc1OCC(O)CNCCNC(=O)Cc1cc2ccccc2[nH]1 (configuration not stated) was tested, and the ED50 (Felis catus [1]) was 0.049 mg/kg and the Inhibition (Felis catus [2]) was 6%.

For CC(=O)Nc1ccc(OCC(O)CNC(C)C)cc1 (configuration not stated) [PRACTOLOL], the Inhibition (Felis catus [3]) was 8% and the ED50 (Felis catus [1]) was 0.167 mg/kg.

NC(=O)c1ccccc1OCC(O)CNCCNC(=O)c1cccs1 (configuration not stated) gave an ED50 (Felis catus [1]) of 0.461 mg/kg and an Inhibition (Felis catus [2]) of 0%.

N#Cc1ccccc1OCC(O)CNCCNC(=O)Cc1csc(-c2ccc(Cl)cc2)n1 (configuration not stated) was tested, and the ED50 (Felis catus [1]) was 0.087 mg/kg and the Inhibition (Felis catus [2]) was 0%.

Work on O=C(NCCNCC(O)COc1cccc2c1OCCO2)c1cccs1 (configuration not stated) yielded an Inhibition (Felis catus [2]) of 40%.

With O=C(NCCNCC(O)COc1cccc2c1OCCO2)Nc1ccccc1 (configuration not stated) the ED50 (Felis catus [1]) was 0.111 mg/kg and the Inhibition (Felis catus [2]) was 0%.

N#Cc1ccccc1OCC(O)CNCCNC(=O)c1ccco1 (configuration not stated) was tested, and the ED50 (Felis catus [1]) was 0.272 mg/kg and the Inhibition (Felis catus [2]) was 28%.
